In patent US20260042764A1, “COMPOSITIONS AND METHODS FOR INHIBITION OF KRAS” (TheRas, Inc., priority 2022, published 2026):

Key:
[1] = biological target: T1, Avi-KRAS G12V (2-169) GTP/RAF1 RBD-3xFLAG (51-131) (Homo sapiens, UniProt P01116, G12V); test: Raf1-KRAS G12V-GTP disruption HTRF assay (Biological Example 3); assay type: binding; settings: KRAS G12V, GTP-loaded
T1 construct: Avi-KRAS G12V (2-169)
How it was run: (§1)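 HTRF PPI read-out (ex 320 nm, em 615 nm) after 1 h RT incubation with shaking; data as % activity vs DMSO (100%), IC50 from curve fit. Complex 50 nM, RBD reagent 75 nM; compound 30-0.005 μM, 3-fold.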

[2] = tested on: SW620 cells (KRAS G12V); test: Cell-based pERK HTRF assay in SW620 cell (Biological Example 4); settings: Homo sapiens, SW-620, SW620 (KRAS G12V) cells
How it was run: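 SW620 (KRAS G12V) cells seeded at 3×10^4/well in RPMI, 10% FBS, then treated next day for 4 h with a 9-point half-log series from 1 μM top (0.25% DMSO). Lysates analyzed for pERK by HTRF (Eu cryptate/d2 antibodies, 4–24 h at room temperature), excitation 320 nm, emission 615 nm.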

[3] = biological target: T2, Avi-KRAS G12D (2-169) GTP/RAF1 RBD-3xFLAG (51-131) (Homo sapiens, UniProt P01116, G12D); test: Raf1-KRAS G12D-GTP disruption HTRF assay (Biological Example 3); assay type: binding; settings: KRAS G12D, GTP-loaded
T2 construct: Avi-KRAS G12D (2-169)
T2 sequence (P01116 2-169 isoform P01116-2 G12D): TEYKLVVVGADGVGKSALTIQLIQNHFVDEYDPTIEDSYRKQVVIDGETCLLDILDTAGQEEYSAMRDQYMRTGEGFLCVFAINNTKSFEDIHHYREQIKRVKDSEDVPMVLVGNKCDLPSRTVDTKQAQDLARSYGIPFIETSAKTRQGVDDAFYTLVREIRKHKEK
How it was run: as §1

[4] = tested on: GP2d cells (KRAS G12D); test: Cell-based pERK HTRF assay in GP2d cell (Biological Example 2); settings: GP2d, GP2d (KRAS G12D) cells
How it was run: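 HTRF read-out of pERK (excitation 320 nm, emission 615 nm) after lysates sat 4–24 h at room temperature with Eu cryptate and d2 antibodies.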

[5] = biological target: T3, Avi-KRAS WT (2-169) GTP/RAF1 RBD-3xFLAG (51-131) (Homo sapiens, UniProt P01116); test: Raf1-KRAS WT-GTP disruption HTRF assay (Biological Example 3); assay type: binding; settings: KRAS WT, GTP-loaded
T3 construct: Avi-KRAS WT (2-169)
T3 sequence (P01116 2-169 isoform P01116-2): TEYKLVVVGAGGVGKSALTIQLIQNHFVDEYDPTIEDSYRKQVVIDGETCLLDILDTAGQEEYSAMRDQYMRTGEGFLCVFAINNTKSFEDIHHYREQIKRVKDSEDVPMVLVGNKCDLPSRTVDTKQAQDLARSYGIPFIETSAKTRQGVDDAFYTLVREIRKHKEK
How it was run: as §1

[6] = biological target: T4, Avi-KRAS G12C (2-169) GTP/RAF1 RBD-3xFLAG (51-131) (Homo sapiens, UniProt P01116, G12C); test: Raf1-KRAS G12C-GTP disruption HTRF assay (Biological Example 3); assay type: binding; settings: KRAS G12C, GTP-loaded
T4 construct: Avi-KRAS G12C (2-169)
T4 sequence (P01116 2-169 isoform P01116-2 G12C): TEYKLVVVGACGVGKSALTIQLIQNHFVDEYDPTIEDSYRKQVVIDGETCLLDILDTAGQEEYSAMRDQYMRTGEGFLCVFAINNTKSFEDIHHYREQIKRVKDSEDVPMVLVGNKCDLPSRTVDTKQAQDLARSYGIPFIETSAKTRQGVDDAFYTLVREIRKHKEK
How it was run: as §1

T1 sequence (P01116 2-169 isoform P01116-2 G12V): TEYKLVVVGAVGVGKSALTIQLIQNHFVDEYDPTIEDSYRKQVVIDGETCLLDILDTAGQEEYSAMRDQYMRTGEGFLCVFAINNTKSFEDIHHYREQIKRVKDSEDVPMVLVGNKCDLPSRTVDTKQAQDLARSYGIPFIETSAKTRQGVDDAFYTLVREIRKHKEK

Row | Structure (SMILES) | IC50 [1] | IC50 [2] | IC50 [3] | IC50 [4] | IC50 [5] | IC50 [6]
1 | CCN(c1nc(OC[C@@]23CCCN2C[C@H](F)C3)nc2c(F)c(-c3ccc(F)c4sc(N)c(C#N)c34)c(C(F)(F)F)cc12)[C@H]1C[C@H](C)N(C(=O)C2CC(OC)C2)C1 (stereo partly drawn) [Compound 928] | 100 to 1000 nM | < 100 nM | 100 to 1000 nM | < 100 nM | 100 to 1000 nM | 100 to 1000 nM
2 | CCN(c1nc(OC[C@@]23CCCN2C[C@H](F)C3)nc2c(F)c(-c3ccc(F)c4sc(N)c(C#N)c34)c(C(F)(F)F)cc12)[C@H]1C[C@H](COC)N(C(=O)[C@H]2CCO2)C1 (atropisomer, axis not shown) [Compound 840] | 100 to 1000 nM | < 100 nM | 100 to 1000 nM | < 100 nM | 100 to 1000 nM | 100 to 1000 nM
3 | CCN(c1nc(OC[C@@]23CCCN2C[C@H](F)C3)nc2c(F)c(-c3ccc(F)c4sc(N)c(C#N)c34)c(C(F)(F)F)cc12)[C@H]1CC[C@H](C(=O)N(C)C)C1 (atropisomer, axis not shown) [Compound 660] | 1000 to 10000 nM | < 100 nM | 100 to 1000 nM | < 100 nM | 100 to 1000 nM | 1000 to 10000 nM
4 | CCN(c1nc(OC[C@@]23CCCN2C[C@H](F)C3)nc2c(F)c(-c3ccc(F)c4sc(N)c(C#N)c34)c(C(F)(F)F)cc12)[C@H]1C[C@H]2CN(C3CCC3)C(=O)N2[C@@H]1C (atropisomer, axis not shown) [Compound 970] | 100 to 1000 nM | < 100 nM | 100 to 1000 nM | < 100 nM | 100 to 1000 nM | 100 to 1000 nM
5 | CCN(c1nc(OC[C@@]23CCCN2C[C@H](F)C3)nc2c(F)c(-c3ccc(F)c4sc(N)c(C#N)c34)c(C(F)(F)F)cc12)[C@H]1CCN(C(=O)c2ncc(Cl)s2)C1 (atropisomer, axis not shown) [Compound 939] | 1000 to 10000 nM | < 100 nM | 100 to 1000 nM | < 100 nM | 1000 to 10000 nM | 1000 to 10000 nM
6 | CCN(c1nc(OC[C@@]23CCCN2C[C@H](F)C3)nc2c(F)c(-c3ccc(F)c4sc(N)c(C#N)c34)c(C(F)(F)F)cc12)[C@H]1C[C@H]2CN(CC(F)(F)F)C(=O)N2C1 (atropisomer, axis not shown) [Compound 951] | 100 to 1000 nM | < 100 nM | 100 to 1000 nM | < 100 nM | 100 to 1000 nM | 100 to 1000 nM
7 | CCN(c1nc(OC[C@@]23CCCN2C[C@H](F)C3)nc2c(F)c(-c3ccc(F)c4sc(N)c(C#N)c34)c(C(F)(F)F)cc12)[C@H]1C[C@@H]2COCC(=O)N2C1 (atropisomer, axis not shown) [Compound 878] | 100 to 1000 nM | < 100 nM | 100 to 1000 nM | < 100 nM | 100 to 1000 nM | 100 to 1000 nM
8 | CCN(c1nc(OC[C@@]23CCCN2C[C@H](F)C3)nc2c(F)c(-c3ccc(F)c4sc(N)c(C#N)c34)c(C(F)(F)F)cc12)[C@H]1C[C@H](C)N(C(=O)C2CC2(F)F)C1 (stereo partly drawn) [Compound 881] | 100 to 1000 nM | < 100 nM | 100 to 1000 nM | < 100 nM | 100 to 1000 nM | 100 to 1000 nM
9 | CCN(c1nc(OC[C@]23CCCN2C[C@H](F)C3)nc2c(F)c(-c3ccc(F)c4sc(N)c(C#N)c34)c(C(F)(F)F)cc12)[C@H]1CCN(C(=O)OC)C1 (atropisomer, axis not shown) [Compound 954] | 100 to 1000 nM | < 100 nM | ≤ 100 nM | < 100 nM | 100 to 1000 nM | 100 to 1000 nM
10 | CCN(c1nc(OC[C@@]23CCCN2C[C@H](F)C3)nc2c(F)c(-c3ccc(F)c4sc(N)c(C#N)c34)c(C(F)(F)F)cc12)[C@H]1CCN(C(=O)c2cncs2)C1 (atropisomer, axis not shown; (aS)) [Compound 906, 2-amino-4-((S)-4-(ethyl((S)-1-(thiazole-5-carbonyl)pyrrolidin-3-yl)amino)-8-fluoro-2-(((2R,7aS)-2-fluorotetrahydro-1H-pyrrolizin-7a(5H)-yl)methoxy)-6-(trifluoromethyl)quinazolin-7-yl)-7-fluorobenzo[b]thiophene-3-carbonitrile] | 100 to 1000 nM | < 100 nM | 100 to 1000 nM | < 100 nM | 100 to 1000 nM | 100 to 1000 nM
11 | CCN(c1nc(OC[C@@]23CCCN2C[C@H](F)C3)nc2c(F)c(-c3ccc(F)c4sc(N)c(C#N)c34)c(C(F)(F)F)cc12)[C@H]1CCN(C(=O)c2ccc(C#N)s2)C1 (atropisomer, axis not shown) [Compound 952] | 100 to 1000 nM | < 100 nM | 100 to 1000 nM | < 100 nM | 1000 to 10000 nM | 100 to 1000 nM
12 | CCN(c1nc(OC[C@@]23CCCN2C[C@H](F)C3)nc2c(F)c(-c3ccc(F)c4sc(N)c(C#N)c34)c(C(F)(F)F)cc12)[C@H]1C[C@H](C)N(C(=O)OC2CC(OC)C2)C1 (stereo partly drawn) [Compound 907] | 100 to 1000 nM | < 100 nM | 100 to 1000 nM | < 100 nM | 100 to 1000 nM | 100 to 1000 nM
13 | CN(Cc1cnco1)c1nc(OC[C@@]23CCCN2C[C@H](F)C3)nc2c(F)c(-c3ccc(F)c4sc(N)c(C#N)c34)c(C(F)(F)F)cc12 [Compound 908] | 1000 to 10000 nM | < 100 nM | 100 to 1000 nM | < 100 nM | 1000 to 10000 nM | 1000 to 10000 nM
14 | CCN(c1nc(OC[C@@]23CCCN2C[C@H](F)C3)nc2c(F)c(-c3ccc(F)c4sc(N)c(C#N)c34)c(C(F)(F)F)cc12)[C@H]1C[C@H](COC)N(C(=O)[C@@H]2CCO2)C1 (atropisomer, axis not shown) [Compound 853] | 100 to 1000 nM | < 100 nM | 100 to 1000 nM | < 100 nM | 100 to 1000 nM | 100 to 1000 nM

Continued, values first:

Row | IC50 [1] | IC50 [2] | IC50 [3] | IC50 [4] | IC50 [5] | IC50 [6] | Structure (SMILES)
15 | 100 to 1000 nM | < 100 nM | 100 to 1000 nM | < 100 nM | 100 to 1000 nM | 100 to 1000 nM | CN(Cc1cnoc1)c1nc(OC[C@@]23CCCN2C[C@H](F)C3)nc2c(F)c(-c3ccc(F)c4sc(N)c(C#N)c34)c(C(F)(F)F)cc12 (atropisomer, axis not shown) [Compound 935]
16 | 100 to 1000 nM | < 100 nM | 100 to 1000 nM | < 100 nM | 100 to 1000 nM | 100 to 1000 nM | CN(Cc1cocn1)c1nc(OC[C@@]23CCCN2C[C@H](F)C3)nc2c(F)c(-c3ccc(F)c4sc(N)c(C#N)c34)c(C(F)(F)F)cc12 (atropisomer, axis not shown) [Compound 855]
17 | ≤ 100 nM | < 100 nM | 100 to 1000 nM | < 100 nM | 100 to 1000 nM | ≤ 100 nM | CCN(c1nc(OC[C@@]23CCCN2C[C@H](F)C3)nc2c(F)c(-c3ccc(F)c4sc(N)c(C#N)c34)c(C(F)(F)F)cc12)[C@H]1C[C@H](C)N(C(=O)C2C[C@H]2F)C1 (stereo partly drawn) [Compound 884]
18 | ≤ 100 nM | < 100 nM | ≤ 100 nM | < 100 nM | 100 to 1000 nM | ≤ 100 nM | CCN(c1nc(OC[C@@]23CCCN2C[C@H](F)C3)nc2c(F)c(-c3ccc(F)c4sc(N)c(C#N)c34)c(C(F)(F)F)cc12)[C@H]1C[C@H]2CCCC(=O)N2C1 (atropisomer, axis not shown; (aR)) [Compound 662, 2-amino-4-((S)-4-(ethyl((2S,8aR)-5-oxooctahydroindolizin-2-yl)amino)-8-fluoro-2-(((2R,7aS)-2-fluorotetrahydro-1H-pyrrolizin-7a(5H)-yl)methoxy)-6-(trifluoromethyl)quinazolin-7-yl)-7-fluorobenzo[b]thiophene-3-carbonitrile]
19 | ≤ 100 nM | < 100 nM | ≤ 100 nM | < 100 nM | 100 to 1000 nM | 100 to 1000 nM | CCN(c1nc(OC[C@@]23CCCN2C[C@H](F)C3)nc2c(F)c(-c3ccc(F)c4sc(N)c(C#N)c34)c(C(F)(F)F)cc12)[C@H]1CCN(C(=O)c2cnc(C)s2)C1 (atropisomer, axis not shown) [Compound 902]
20 | ≤ 100 nM | < 100 nM | 100 to 1000 nM | < 100 nM | 100 to 1000 nM | ≤ 100 nM | CCN(c1nc(OC[C@@]23CCCN2C[C@H](F)C3)nc2c(F)c(-c3ccc(F)c4sc(N)c(C#N)c34)c(C(F)(F)F)cc12)[C@H]1CC(=O)N2CCC[C@H]12 (atropisomer, axis not shown) [Compound 880]
